# B1: antistasin: protein, specific Factor Xa inhibitor which possesses antithrombotic properties (protein, UniProt P15358 18-136, looked up)
# Antistasin: QGPFGPGCEEAGCPEGSACNIITDRCTCSGVRCRMHCPHGFQRSRYGCEFCKCRLEPMKATCDISECPEGMMCSRLTNKCDCKIDINCRKTCPNGLKRDKLGCEYCECRPKRKLIPRLS
# Tests used:
# human Factor Xa = human Factor Xa (Homo sapiens, UniProt P00742); test: Measurement of Factor Xa Inhibition (test a, chromogenic substrate S-2765); type: biochemical; details: pH 7.5, 37° C., human Factor Xa 0.001 Units/ml
# Chain of human Factor Xa (P00742 235-488 limits assumed): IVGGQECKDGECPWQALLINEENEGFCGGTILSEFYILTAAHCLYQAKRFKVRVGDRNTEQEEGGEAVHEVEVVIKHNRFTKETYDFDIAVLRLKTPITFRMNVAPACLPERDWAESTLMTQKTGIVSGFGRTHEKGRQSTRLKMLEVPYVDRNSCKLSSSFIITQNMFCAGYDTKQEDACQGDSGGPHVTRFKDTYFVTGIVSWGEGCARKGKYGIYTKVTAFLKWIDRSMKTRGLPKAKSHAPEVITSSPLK
# Chain of human Factor Xa (P00742 41-179 partner limits assumed): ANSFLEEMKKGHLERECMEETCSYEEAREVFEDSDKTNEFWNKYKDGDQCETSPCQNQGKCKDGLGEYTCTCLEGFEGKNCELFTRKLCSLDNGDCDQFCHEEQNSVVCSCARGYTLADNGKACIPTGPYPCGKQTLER
# Experimental: a) Measurement of Factor Xa Inhibition
# An in vitro assay system was carried out based on the method of Kettner et al., J. Biol. Chem., 1990, 265, 18289-18297, whereby various concentrations of a test compound were dissolved in a pH7.5 buffer containing 0.5% of a polyethylene glycol (PEG 6000) and incubated at 37° C. with human Factor Xa (0.001 Units/ml, 0.3 ml) for 15 minutes. The chromogenic substrate S-2765 (KabiVitum AB, 20 μM) was added and the mixture was incubated at 37° C. for 20 minutes whilst the absorbance at 405 nm was measured. The maximum reaction velocity (Vmax) was determined and compared with that of a control sample containing no test compound. Inhibitor potency was expressed as an IC50 value.
# human thrombin = molecular target: T1, human thrombin (Homo sapiens, UniProt P00734); test: Measurement of Thrombin Inhibition (test b, chromogenic substrate S-2238); type: biochemical; details: human thrombin 0.005 Units/ml, S-2238 7 μM
# T1 construct: cleaves prothrombin to generate thrombin
# Experimental: b) Measurement of Thrombin Inhibition
# The procedure of method a) was repeated except that human thrombin (0.005 Units/ml) and the chromogenic substrate S-2238 (KabiVitum AB, 7 μM) were employed.
# [1] = system: human, rat or rabbit blood plasma (prothrombin time); test: Measurement of Anticoagulant Activity, prothrombin time (PT) test in vitro (test c); details: plasma incubated 10 minutes at 37° C., species not given
# Experimental: c) Measurement of Anticoagulant Activity
# An in vitro assay whereby human, rat or rabbit venous blood was collected and added directly to a sodium citrate solution (3.2 g/100 ml, 9 parts blood to 1 part citrate solution). Blood plasma was prepared by centrifugation (1000 g, 15 minutes) and stored at 2-4° C. Conventional prothrombin time (PT) tests were carried out in the presence of various concentrations of a test compound and the concentration of test compound required to double the clotting time, hereinafter referred to as CT2, was determined. In the PT test, the test compound and blood plasma were incubated at 37° C. for 10 minutes. Tissue thromboplastin with calcium (Sigma Limited, Poole, England) was added. Fibrin formation and the time required for a clot to form were determined.
# Factor Xa = details: known from the literature; cited from earlier work
# [2] = system: various animal models of thrombotic disease; details: cited from earlier work
molecule,measurement,setting,value
"CCSCCNC(=O)C1CN(S(=O)(=O)c2ccc3cc(Br)ccc3c2)CCN1C(=O)C1CCN(c2ccncc2)CC1 (stereo not shown) [Example 1, 4-(6-Bromonaphth-2-ylsulphonyl)-2-[N-(2-(ethylthio)ethyl)carbamoyl]-[1-1-(4-pyridyl)piperidin-4-ylcarbonyl]piperazine]",IC50,human Factor Xa,4 nM
same,IC50,human thrombin,> 5 µM
same,"CT2 (PT), concentration of test compound required to double the clotting time",[1],1 µM
"tick anticoagulant protein (TAP): protein, specific Factor Xa inhibitor which possesses antithrombotic properties (YNRLCIKPRDWIDECDSNEGGERAYFRNGKGGCDSFWICPEDHTGADYYSSYRDCFNACI; UniProt P17726 1-60, looked up)","Factor Xa inhibition (specificity, in words)",Factor Xa,specific Factor Xa inhibitors
same,antithrombotic properties (in words),[2],possess antithrombotic properties
B1,"Factor Xa inhibition (specificity, in words)",Factor Xa,specific Factor Xa inhibitors
same,antithrombotic properties (in words),[2],possess antithrombotic properties

# From US6022869A, “Aminoheterocyclic compounds with antithrombotic/anticoagulant effect” (Zeneca Limited, priority 1996, dated 2000)
